Measured values from patent US6291527A (priority 1998, dated 2001).
Where a name gives a salt, the structure may show the parent alone.

Key:
[1] = animal studies of the three salts vs Ketoprofen acid and Ketoprofen sodium salt: distribution and kinetics; format: in vivo, experimental animals; conditions: for active substance concentration in the inflamed site: injection, vs Ketoprofen sodium salt; for kinetic parameters after oral administration: vs Ketoprofen acid and Ketoprofen sodium salt
From the text: The three above mentioned Ketoprofen salts were compared with Ketoprofen acid and Ketoprofen sodium salt in animal studies.

prostaglandin E2 (PGE2) = assay: foreign body (sponge) method in the rat: PGE2 in the inflammatory exudate (immunoenzymatic assay); format: in vivo; conditions: rat, oral, listed as KLS; for PGE2 concentration in the inflammatory exudate / % inhibition versus controls of PGE2: 8 hours; for PGE2 concentration in the inflammatory exudate: mean, controls 98.7 ± 4.7
Protocol: (§1) These tests involved the use of 100 male CD strain rats (Charles River, Calco, LC, Italy) weighing 180±8 g. The animals were fasted for 12 hours (water ad libitum) before being used for the experiment.
(§2) The inflammatory reaction with the formation of exudate was induced by using sterilized polyester sponges (4×1.5×0.5 cm) soaked in carrageen dissolved at a 2% concentration in sterile physiological solution. The rats were anesthetized lightly with ether and two sponges per rat were implanted subcutaneously in a previously shaven dorsal area.
(§3) The sponges were removed 8 hours later after having sacrificed the animals by ether euthanasia, and immediately placed in large polyethylene 50 ml test tubes containing 10 ml of heparinized physiological solution. The test tubes were then subjected to centrifugation (1000 rotations; 15 minutes), followed by removal of the sponges and accurate measurement of the volume of the remaining fluid. Always using the Higgs et al. method, the acid lipids present in the fluid were extracted in chloroform with prior dilution in ethanol and acidification to pH 3. After complete evaporation of the chloroform, the remaining dry residue was dissolved in physiological solution and used for the immunoenzymatic assay of prostaglandin E2 (PGE2).
(§4) All the other reagents used for the tests were purchased from Merck-Bracco (Milan, Italy).

[2] = tested on: inflammatory exudate (IE); assay: foreign body (sponge) method in the rat: inflammatory exudate volume; format: in vivo; conditions: for IE (inflammatory exudate) volume / % inhibition versus controls of IE: 8 hours; for IE (inflammatory exudate) volume: mean ± MSE, controls 5.15 ± 0.28
Protocol: as §1, §2, §3, §4

carrageen edema = carrageen edema test in the rat (hind paw volume, plethysmometer); conditions: rat, oral; for evolution of paw volume (delta in ml) at 1st hour / evolution of paw volume (delta in ml) at 2nd hour / evolution of paw volume (delta in ml) at 3rd hour / evolution of paw volume (delta in ml) at 4th hour / evolution of paw volume (delta in ml) at 5th hour / evolution of paw volume (delta in ml) at 6th hour: mean ± MSE; for % inhibition vs controls (paw edema AUC): p < 0.001; for AUC (mean ± MSE) of increase in paw volume: paw volume (delta in ml) vs time (0 to 6 hours), controls 4.23 ± 0.26; for oral ED50 (carrageen edema, extrapolated from AUC): 95% conf. lim. KGS 0.733-1.474, KLS 1.198-1.567
[3] = rat, oral, 0.5 mg/kg, listed as KLS
[4] = rat, oral, 1 mg/kg, listed as KLS
[5] = rat, oral, 2 mg/kg, listed as KLS
[6] = rat, oral, 4 mg/kg, listed as KLS

SMILES: CC(C(=O)O)c1cccc(C(=O)c2ccccc2)c1 (stereo not shown) [Ketoprofen Hydroxyproline salt]
- active substance concentration in the inflamed site [1]: intermediate concentrations between the sodium salt and the Glucosamine salt
- kinetic parameters after oral administration [1]: significantly different

SMILES: CC(C(=O)O)c1cccc(C(=O)c2ccccc2)c1 (stereo not shown) [Ketoprofen Proline salt]
- active substance concentration in the inflamed site [1]: intermediate concentrations between the sodium salt and the Glucosamine salt
- kinetic parameters after oral administration [1]: significantly different

SMILES: CC(C(=O)O)c1cccc(C(=O)c2ccccc2)c1 (stereo not shown) [Ketoprofen Lysine salt]
- PGE2 concentration in the inflammatory exudate (prostaglandin E2 (PGE2); 0.5 mg/kg): 78.1 ng/mL
- % inhibition versus controls of PGE2 (prostaglandin E2 (PGE2); 0.5 mg/kg): 20.9%
- PGE2 concentration in the inflammatory exudate (prostaglandin E2 (PGE2); 1 mg/kg): 67.9 ng/mL
- % inhibition versus controls of PGE2 (prostaglandin E2 (PGE2); 1 mg/kg): 31.2%
- PGE2 concentration in the inflammatory exudate (prostaglandin E2 (PGE2); 2 mg/kg): 55.6 ng/mL
- % inhibition versus controls of PGE2 (prostaglandin E2 (PGE2); 2 mg/kg): 43.7%
- PGE2 concentration in the inflammatory exudate (prostaglandin E2 (PGE2); 4 mg/kg): 32.8 ng/mL
- % inhibition versus controls of PGE2 (prostaglandin E2 (PGE2); 4 mg/kg): 66.8%
- PGE2 oral ED50 (prostaglandin E2 (PGE2); 95% confidence limits KGS 1.848-2.131, KLS 2.215-3.005, 480 min): 2.610 mg/kg
- control of the inflammatory response to sponge implantation ([2]; rat, 0.5, 1, 2 and 4 mg/kg per os): able to control the inflammatory response
- IE (inflammatory exudate) volume [2, 3]: 4.33 ± 0.26 mL
- % inhibition versus controls of IE [2, 3]: 15.9%
- IE (inflammatory exudate) volume [2, 4]: 3.82 ± 0.15 mL
- % inhibition versus controls of IE [2, 4]: 25.8%
- IE (inflammatory exudate) volume [2, 5]: 2.97 ± 0.19 mL
- % inhibition versus controls of IE [2, 5]: 42.3%
- IE (inflammatory exudate) volume [2, 6]: 1.68 ± 0.14 mL
- % inhibition versus controls of IE [2, 6]: 67.4%
- IE oral ED50 ([2]; rat, oral, 95% confidence limits KGS 1.802-2.381, KLS 2.334-3.094, 480 min, listed as KLS): 2.714 mg/kg
- evolution of paw volume (delta in ml) at 1st hour (carrageen edema; 0.5 mg/kg, controls 0.40 ± 0.02, listed as KLS): 0.32 ± 0.02 mL
- evolution of paw volume (delta in ml) at 2nd hour (carrageen edema; 0.5 mg/kg, controls 0.71 ± 0.02, listed as KLS): 0.53 ± 0.03 mL
- evolution of paw volume (delta in ml) at 3rd hour (carrageen edema; 0.5 mg/kg, controls 0.87 ± 0.03, listed as KLS): 0.66 ± 0.04 mL
- evolution of paw volume (delta in ml) at 4th hour (carrageen edema; 0.5 mg/kg, controls 0.93 ± 0.03, listed as KLS): 0.70 ± 0.03 mL
- evolution of paw volume (delta in ml) at 5th hour (carrageen edema; 0.5 mg/kg, controls 0.90 ± 0.04, listed as KLS): 0.68 ± 0.02 mL
- evolution of paw volume (delta in ml) at 6th hour (carrageen edema; 0.5 mg/kg, controls 0.84 ± 0.04, listed as KLS): 0.64 ± 0.03 mL
- % inhibition vs controls (paw edema AUC) (carrageen edema; 0.5 mg/kg, listed as KLS): 24.1%
- AUC (mean ± MSE) of increase in paw volume (carrageen edema; 0.5 mg/kg, listed as KLS, 0.5 mg/kg): 3.21 ± 0.17
- evolution of paw volume (delta in ml) at 1st hour (carrageen edema; 1 mg/kg, listed as KLS): 0.24 ± 0.02 mL
- evolution of paw volume (delta in ml) at 2nd hour (carrageen edema; 1 mg/kg, listed as KLS): 0.43 ± 0.03 mL
- evolution of paw volume (delta in ml) at 3rd hour (carrageen edema; 1 mg/kg, listed as KLS): 0.54 ± 0.03 mL
- evolution of paw volume (delta in ml) at 4th hour (carrageen edema; 1 mg/kg, listed as KLS): 0.59 ± 0.03 mL
- evolution of paw volume (delta in ml) at 5th hour (carrageen edema; 1 mg/kg, listed as KLS): 0.57 ± 0.03 mL
- evolution of paw volume (delta in ml) at 6th hour (carrageen edema; 1 mg/kg, listed as KLS): 0.49 ± 0.03 mL
- % inhibition vs controls (paw edema AUC) (carrageen edema; 1 mg/kg, listed as KLS): 38.0%
- AUC (mean ± MSE) of increase in paw volume (carrageen edema; 1 mg/kg, listed as KLS, 1 mg/kg): 2.62 ± 0.12
- evolution of paw volume (delta in ml) at 1st hour (carrageen edema; 2 mg/kg, listed as KLS): 0.13 ± 0.02 mL
- evolution of paw volume (delta in ml) at 2nd hour (carrageen edema; 2 mg/kg, listed as KLS): 0.23 ± 0.02 mL
- evolution of paw volume (delta in ml) at 3rd hour (carrageen edema; 2 mg/kg, listed as KLS): 0.28 ± 0.02 mL
- evolution of paw volume (delta in ml) at 4th hour (carrageen edema; 2 mg/kg, listed as KLS): 0.29 ± 0.02 mL
- evolution of paw volume (delta in ml) at 5th hour (carrageen edema; 2 mg/kg, listed as KLS): 0.28 ± 0.02 mL
- evolution of paw volume (delta in ml) at 6th hour (carrageen edema; 2 mg/kg, listed as KLS): 0.23 ± 0.03 mL
- % inhibition vs controls (paw edema AUC) (carrageen edema; 2 mg/kg, listed as KLS): 68.6%
- AUC (mean ± MSE) of increase in paw volume (carrageen edema; 2 mg/kg, listed as KLS, 2 mg/kg): 1.33 ± 0.07
- oral ED50 (carrageen edema, extrapolated from AUC) (carrageen edema): 1.383 mg/kg
- oral ED50 (carrageen edema, extrapolated from AUC) (carrageen edema; listed as KLS): 1.383 mg/kg
